Test system: SU-DHL-4 cells
Assay: Inhibitory effect on cell viability (Cell Counting Kit-8)
Assay type: cell-based
Conditions: Homo sapiens, 72 hours culture with test compound, concentration showing 90% inhibition rate of cell viability
Description: Inhibitiory Effect on Cell Viability
SU-DHL-4 cells (Code No. ACC 495, Deutsche Sammlung von Mikroorganismen and Zellkulturen GmbH) were cultured at 37° C. using a carbon dioxide incubator (95% air, 5% CO2) in RPMI1640 medium (Code No. 11875-093, Thermo Fisher Scientific) in which inactivated fetal bovine serum (FBS: Code No. 10099-148, Thermo Fisher Scientific) in an amount to give a final concentration of 10 vol % and penicillin/streptomycin solution (PS: Code No. 15140-122, Thermo Fisher Scientific) in an amount to give a final concentration of 1 vol % were added. The cells were passaged twice a week at a volume of 20-40 mL so as to maintain a cell concentration of 1×10^6 cells/mL or less.
The cultured SU-DHL-4 cells were seeded at 2000 cells/well in a transparent 384-well plate (Code No. 781182, Greiner bio-one). After seeding, the cells were precultured at 37° C. in a carbon dioxide gas incubator for 18 to 25 hours. Next, 1, 0.1 or 0.01 mmol/L DMSO solution of the test compound was prepared and a 9-step dilution series were prepared so that the concentration will be 200 times the final concentration in the RPMI1640 medium containing the above FBS and PS, and 1/200 volume of the dilution series were added to each well. At this time, the final concentration of DMSO was adjusted to be 0.1 vol %. After adding the test compound, the cells were cultured at 37° C. in a carbon dioxide gas incubator for 72 hours. Next, 0.020 mL of Cell Counting Kit-8 (Code No. CK04, DOJINDO) solution diluted 2-fold or 4-fold with phosphate buffered saline (PBS) was added to each well. Color reaction was carried out in a carbon dioxide gas incubator at 37° C. for 2 to 3 hours, and the absorbance at a wavelength of 450 nm was measured using SpectraMax 340PC (Molecular Devices). The inhibition rate of cell viability was calculated by the following formula, and the concentration of the test compound (IC90 value) showing a 90% inhibition rate of cell viability was calculated. Inhibition rate of cell viability (%)=100−(A−B)/(C−B)×100 • A: Absorbance of a well containing test compound • B: Absorbance of a well without addition of cells • C: Absorbance of a well without addition of test compound

Row | IC90 [nM] | SMILES
1 | 0.12 | CCC(=O)N1c2ccccc2[C@H](Nc2ccc(CNCc3cn(-c4ccc(N[C@@H]5C[C@H](C)N(C(=O)CC)c6ccccc65)cc4)nn3)cc2)C[C@@H]1C [Compound 5h, 1-((2S,4R)-2-Methyl-4-((4-((((1-(4-(((2S,4R)-2-methyl-1-propionyl-1,2,3,4-tetrahydroquinolin-4-yl)amino)phenyl)-1H-1,2,3-triazol-4-yl)methyl)amino)methyl)phenyl)amino)-3,4-dihydroquinolin-1(2H)-yl)propan-1-one]
2 | 1.73 | CCC(=O)N1c2ccccc2[C@H](Nc2ccc(CNCc3cn(-c4ccc(N[C@@H]5C[C@H](C)N(C(=O)CC)c6ccccc65)nc4)nn3)cc2)C[C@@H]1C (relative stereo) [Compound 10j, 1-((2S,4R)-2-Methyl-4-((4-((((1-(6-(((2S*,4R*)-2-methyl-1-propionyl-1,2,3,4-tetrahydroquinolin-4-yl)amino)pyridin-3-yl)-1H-1,2,3-triazol-4-yl)methyl)amino)methyl)phenyl)amino)-3,4-dihydroquinoline-1(2H)-yl)propan-1-one]
3 | 0.04 | CCC(=O)N1c2ccccc2[C@H](Nc2ccc(-n3cc(CNC(=O)c4ccc(Cn5c(CC)cc6c5CCCC6=O)cc4)nn3)cc2)C[C@@H]1C [Compound 15f, 4-((2-Ethyl-4-oxo-4,5,6,7-tetrahydro-1H-indol-1-yl)methyl)-N-((1-(4-(((2S,4R)-2-methyl-1-propionyl-1,2,3,4-tetrahydroquinolin-4-yl)amino)phenyl)-1H-1,2,3-triazol-4-yl)methyl)benzamide]
4 | 0.003 | CCC(=O)N1c2ccccc2C(Nc2ccc(NC(=O)C#CCNC(=O)c3ccc(N[C@@H]4C[C@H](C)N(C(=O)CC)c5ccccc54)cc3)cc2)CC1C (stereo partly drawn) [Compound 6h, 4-(((2S,4R)-2-Methyl-1-propionyl-1,2,3,4-tetrahydroquinolin-4-yl)amino)-N-(4-((4-((2-methyl-1-propionyl-1,2,3,4-tetrahydroquinolin-4-yl)amino)phenyl)amino)-4-oxobut-2-yn-1-yl)benzamide]
5 | 1.08 | CCC(=O)N1c2ccccc2[C@H](Nc2ccc(NC(=O)CCCC(=O)Nc3ccc(N[C@@H]4C[C@H](C)N(C(=O)CC)c5ccccc54)cn3)cc2)C[C@@H]1C (relative stereo) [Compound 10l, N^1-(4-(((2S,4R)-2-Methyl-1-propionyl-1,2,3,4-tetrahydroquinolin-4-yl)amino)phenyl)-N^5-(5-(((2S*,4R*)-2-methyl-1-propionyl-1,2,3,4-tetrahydroquinolin-4-yl)amino)pyridin-2-yl)glutaramide]
6 | 0.59 | CCC(=O)N1c2ccccc2[C@H](Nc2ccc(NC(=O)CC[S+]([O-])c3ccc(N[C@@H]4C[C@H](C)N(C(=O)CC)c5ccccc54)cc3)cc2)C[C@@H]1C (stereo partly drawn) [Compound 5m, N-(4-(((2S,4R)-2-Methyl-1-propionyl-1,2,3,4-tetrahydroquinolin-4-yl)amino)phenyl)-3-((4-(((2S,4R)-2-methyl-1-propionyl-1,2,3,4-tetrahydroquinolin-4-yl)amino)phenyl)sulfinyl)propanamide]
7 | 0.17 | CCC(=O)N1c2ccccc2[C@H](Nc2ccc(C(=O)NCc3cn(-c4ccc(C5=NCc6nnc(C)n6-c6sc(C)c(C)c65)cc4)nn3)cc2)C[C@@H]1C [Compound 14q, 4-(((2S,4R)-2-Methyl-1-propionyl-1,2,3,4-tetrahydroquinolin-4-yl)amino)-N-((1-(4-(2,3,9-trimethyl-6H-thieno[3,2-f][1,2,4]triazolo[4,3-a][1,4]diazepin-4-yl)phenyl)-1H-1,2,3-triazol-4-yl)methyl)benzamide]

Continued, compound first:

Row | SMILES | IC90 [nM]
8 | CCC(=O)N1c2ccccc2[C@H](Nc2ccc(C(=O)NCc3cn(-c4ccc(N[C@@H]5C[C@H](C)N(C(=O)CC)c6ccccc65)cc4)nn3)cc2)C[C@@H]1C [Compound 3a, 4-{[(2S,4R)-2-Methyl-1-propionyl-1,2,3,4-tetrahydroquinolin-4-yl]amino}-N-{[1-(4-{[(2S,4R)-2-methyl-1-propionyl-1,2,3,4-tetrahydroquinolin-4-yl]amino}phenyl)-1H-1,2,3-triazol-4-yl]methyl}benzamide] | 0.04
9 | CCC(=O)N1c2ccccc2[C@H](Nc2ccc(C(=O)NC3CN(C(=O)c4ccc(N[C@@H]5C[C@H](C)N(C(=O)CC)c6ccccc65)cc4)C3)cc2)C[C@@H]1C (relative stereo) [Compound 1g, 4-{[(2S*,4R*)-2-Methyl-1-propionyl-1,2,3,4-tetrahydroquinolin-4-yl]amino}-N-[1-(4-{[(2S*,4R*)-2-methyl-1-propionyl-1,2,3,4-tetrahydroquinolin-4-yl]amino}benzoyl)azetidin-3-yl]benzamide] | 10.6
10 | CCC(=O)N1c2ccccc2[C@H](Nc2ccc(NC(=O)c3coc(Nc4ccc(N[C@@H]5C[C@H](C)N(C(=O)CC)c6ccccc65)cc4)n3)cc2)C[C@@H]1C [Compound 5a, N-(4-(((2S,4R)-2-Methyl-1-propionyl-1,2,3,4-tetrahydroquinolin-4-yl)amino)phenyl)-2-((4-(((2S,4R)-2-methyl-1-propionyl-1,2,3,4-tetrahydroquinolin-4-yl)amino)phenyl)amino)oxazole-4-carboxamide] | 2.15
11 | CCC(=O)N1c2ccccc2[C@H](Nc2ccc(NC(=O)CNC(=O)c3ccc(N[C@@H]4C[C@H](C)N(C(=O)CC)c5ccccc54)cc3)cc2)C[C@@H]1C (relative stereo) [Compound 2a, 4-{[(2S*,4R*)-2-Methyl-1-propionyl-1,2,3,4-tetrahydroquinolin-4-yl]amino}-N-{2-[(4-{[(2S*,4R*)-2-methyl-1-propionyl-1,2,3,4-tetrahydroquinolin-4-yl]amino}phenyl)amino]-2-oxoethyl}benzamide] | 2.12
12 | CCC(=O)N1c2ccccc2[C@H](Nc2ccc(CNC3CN(C(=O)c4ccc(N[C@@H]5C[C@H](C)N(C(=O)CC)c6ccccc65)cc4)C3)cc2)C[C@@H]1C [Compound 5e, 1-((2S,4R)-2-Methyl-4-((4-(((1-(4-(((2S,4R)-2-methyl-1-propionyl-1,2,3,4-tetrahydroquinolin-4-yl)amino)benzoyl)azetidin-3-yl)amino)methyl)phenyl)amino)-3,4-dihydroquinolin-1(2H)-yl)propan-1-one] | 5.93
13 | CCC(=O)N1c2ccccc2[C@H](Nc2ccc(NS(=O)(=O)c3cccc(NC(=O)c4ccc(N[C@@H]5C[C@H](C)N(C(=O)CC)c6ccccc65)cc4)c3)cc2)C[C@@H]1C (relative stereo) [Compound 4c, 4-{[(2S,4R)-2-Methyl-1-propionyl-1,2,3,4-tetrahydroquinolin-4-yl]amino}-N-{3-[N-(4-{[(2S*,4R*)-2-methyl-1-propionyl-1,2,3,4-tetrahydroquinolin-4-yl]amino}phenyl)sulfamoyl]phenyl}benzamide] | 4.03
14 | CCC(=O)N1c2ccccc2[C@H](Nc2ccc(SCCNC(=O)c3ccc(C4=NCc5nnc(C)n5-c5sc(C)c(C)c54)cc3)cc2)C[C@@H]1C [Compound 14s, N-(2-((4-(((2S,4R)-2-Methyl-1-propionyl-1,2,3,4-tetrahydroquinolin-4-yl)amino)phenyl)thio)ethyl)-4-(2,3,9-trimethyl-6H-thieno[3,2-f][1,2,4]triazolo[4,3-a][1,4]diazepin-4-yl)benzamide] | 2.2

Source: patent US12054494B2, “Compound with anticancer activity” (KYOWA KIRIN CO., LTD., priority 2018, dated 2024)
